Data: PMC9320749, “Synthesis, Molecular Docking Study, and Cytotoxic Activity against MCF Cells of New Thiazole–Thiophene Scaffolds” (Molecules, 2022)
Like-named read-outs stand apart in the source and are kept apart here.

Key:
MCF-7 [1] = experiment: cells; details: Homo sapiens, MCF7, 72 h, read-out: IC50 (μM) MCF-7, MCF-7 breast carcinoma cells; mean of three independent experiments; 72 h incubation
Description: (§1) The results were used to plot a dose–response curve, from which the concentrations of the tested samples required to kill half of the cell population (IC50) were determined. In addition, cytotoxic activities were expressed as the mean IC50 calculated from three independent experiments.
(§2) The cytotoxic potentials of the newly synthesized compounds was carried out at the Regional Center for Mycology and Biotechnology at Al-Azhar University, Cairo, Egypt. Cells were purchased from the Egyptian Holding Company for Biological Products and Vaccines (VACSERA, Giza, Egypt) and kept in a tissue culture unit. Cells were grown in Roswell Park Memorial Institute (RPMI)-1640 medium supplemented with 10% heat-inactivated fetal bovine serum (FBS), 50 units/mL penicillin, and 50 mg/mL streptomycin, and maintained in a humidified atmosphere containing 5% CO2 [11, 25]. Cells were maintained as monolayer cultures using serial subculture. Cell culture reagents were obtained from Lonza (Basel, Switzerland). The anticancer activities of the rest of the compounds were evaluated in MCF-7 (breast cancer) cells. In addition, the sulforhodamine B (SRB) assay method, as described previously in [39, 40], was used to determine cytotoxicity. Exponentially growing cells were collected using 0.25% trypsin–EDTA and seeded in 96-well plates at 1000–2000 cells/well in RBMI-1640 supplemented medium. After 24 h, cells were incubated for 72 h with various concentrations of the compounds tested. Following 72 h of incubation, the cells were fixed with 10% trichloroacetic acid for 1 h at 4 °C. Wells were stained for 10 min at room temperature with 0.4% sulforhodamine B (SRBC) dissolved in 1% acetic acid. Plates were air-dried for 24 h, and the dye was solubilized with Tris–HCl for 5 min on a shaker at 1600 rpm. The optical density (OD) of each well was measured spectrophotometrically at 564 nm using an ELISA microplate reader (ChroMate-4300, Palm City, FL, USA). IC50 values were calculated using a Boltzmann sigmoidal concentration–response curve using non-linear regression fitting models (Graph Pad, Prism Version 9, GraphPad Software, San Diego, CA, USA).

in vitro = details: rhesus monkey
MCF-7 [2] = details: for IC50: read-out: IC50 (μM) MCF-7, MCF-7 breast carcinoma cells, mean of three independent experiments, 72 h incubation
Description: as §1, §2

| SMILES | IC50 (MCF-7 [1]) [µM] | CC50 at 72 h (in vitro) [µM] | melting point [°C] | IC50 (MCF-7 [2]) [µM] | SI Values (CC50/IC50) (MCF-7 [2]) |
| --- | --- | --- | --- | --- | --- |
| C/C(=N\N=c1/sc(/N=N/c2ccc(C)cc2)c(C)n1N)c1cccs1 [4b] | 10.2 ± 0.8 | 176 ± 18.2 | – | – | – |
| C/C(=N\N=c1/scc(-c2ccc(Cl)cc2)n1N)c1cccs1 [11c] | > 38 | – | 180 to 182 | 38.2 ± 1.4 | – |
| C/C(=N\N=c1/scc(-c2ccc([N+](=O)[O-])cc2)n1N)c1cccs1 [11d] | > 38 | – | 194 to 196 | 54.8 ± 1.6 | – |
| C/C(=N\N=c1/sc(/N=N/c2ccc(Cl)cc2)c(C)n1N)c1cccs1 [4c] | 19.7 ± 1.3 | – | 205 to 207 | – | – |
| CC(=NN=C1SC(=NNc2ccc(C)cc2)C(=O)N1N)c1cccs1 [8a, 3-Amino-2-[(1-(thiophen-2-yl)ethylidene)hydrazineylidene]-5-(2-(p-tolyl)hydrazineylidene) thiazolidin-4-one] | 13.6 ± 0.9 | 149 ± 15.9 | – | – | 10.99 |
| CC(=NN=C1SC(=NNc2ccc(Cl)cc2)C(=O)N1N)c1cccs1 [8b, 3-Amino-5-(2-(4-chlorophenyl)hydrazineylidene)-2-[(1-(thiophen-2-yl)ethylidene) hydrazineylidene]thiazolidin-4-one] | 23.7 ± 1.6 | – | 177 to 179 | – | – |
| C/C(=N\N=c1/scc(-c2ccc(C)cc2)n1N)c1cccs1 [11b] | 17.9 ± 0.8 | 231 ± 25 | – | – | 12.93 |
| C/C(=N\N=c1/scc(-c2ccccc2)n1N)c1cccs1 [11a] | 21 ± 0.7 | – | 166 to 168 | – | – |
| C/C(=N\N=c1/sc(/N=N/c2ccccc2)c(C)n1N)c1cccs1 [4a] | 16.3 ± 1 | 183 ± 21.3 | – | – | 11.23 |
| C/C(=N\N=c1/sc(/N=N/c2ccc(Cl)cc2Cl)c(C)n1N)c1cccs1 [4d] | 19.8 ± 0.9 | – | 227 to 229 | – | – |
| CC(=O)c1sc(=NN=C(C)c2cccs2)n(N)c1C [13a, 1-[3-Amino-4-methyl-2-((1-(thiophen-2-yl)ethylidene)hydrazineylidene]-2,3-dihydrothiazol-5-yl)ethan-1-one] | 11.5 ± 0.8 | 163 ± 19.1 | – | – | 14.14 |
| N.N.[Cl][Pt][Cl] [Cisplatin, cisplatin, reference compound] | – | – | – | 13.3 ± 0.61 | – |
| CCOC(=O)c1s/c(=N\N=C(/C)c2cccs2)n(N)c1C [13b] | 16.3 ± 1.4 | 135 ± 9.58 | – | – | 8.29 |
